Laboratory results from patent US20060217303A1, “Compounds and Methods for Treating Seizure Disorders” (Wisconsin Alumni Research Foundation, priority 2005, published 2006).

Tests used:
[1] = tested on: CA3 region of rat hippocampal slices; assay: Synchronized bursting induced by elevated [K+]o in rat hippocampal slices ex corpora (extracellular CA3 recording); type: cell-based; settings: for epileptic discharges evoked in vitro (relative burst frequency) / epileptiform bursting frequency: normal glucose conditions; for epileptic discharges evoked in vitro (relative burst frequency): summary statement; for burst frequency: 20 mM lactate or 20 mM pyruvate in place of 10 mM glucose in ACSF, 7.5 mM [K+]o; for epileptiform bursting frequency: FIG. 6A; for synchronized bursting: 10 mM glucose; for block of the increase in bursting caused by the PEPCK inhibitor 3-MCP: slices simultaneously exposed to 3-MCP, FIGS. 5A, 5B
Description: The effect of various energy sources on synchronized bursting induced by elevation of [K^+]o in rat hippocampal slices ex corpora was evaluated.
In these experiments, postnatal day 28 to 40 male Sprague-Dawley rats were anesthetized and decapitated. Brains were removed and transferred to ice cold artificial cerebrospinal fluid (ACSF, comprising 124 mM NaCl, 5 mM KCl, 1.25 mM NaH2PO4, 1.5 mM MgSO4, 26 mM NaHCO3 and 2 mM CaCl2), supplemented with 10 mM glucose, which was continuously bubbled with 95% O2 and 5% CO2. Transverse hippocampal slices (˜500 microns) were prepared on a Leica VT1000s vibratome (Wetzlar Germany). The slices were allowed to recover for 1 hour at room temperature and were then transferred to an interface recording chamber at 34° C. in ACSF with 7.5 mM [K^+]o. Extracellular recordings were made from the CA3 region with an Axioclamp 2B (Axon Instruments, Forest City, Calif.) using a glass microelectrode filled with 150 mM NaCl. Data were recorded and analyzed using PClamp8 (Axon Instruments).
Synchronized bursting was induced by incubating hippocampal slices in ACSF supplemented with potassium chloride to a final concentration of 7.5 mM [K^+]o. Baseline recordings were obtained after exposure to elevated [K^+]o for 1 hour and the burst frequency had stabilized. Bursting was then recorded in ACSF containing 20 mM lactate or 20 mM pyruvate in place of the 10 mM glucose.

[2] = Duration of anticonvulsant effect of 2DG after stopping treatment while continuing twice daily stimulation; type: in vivo; settings: 250 mg/kg twice daily for 3 months; twice daily stimulation continued
Description: . […]; 5 mM solutions of oxaloacetate glycolic acid, chloroacetate and thioglycolate are equivalent to 660 mg/kg 380 mg/kg, ˜620 mg/kg and 460 mg/kg. respectively. […] A practitioner skilled in the art can adjust dosage in the range up to 500-600 mg/kg 2DG and the timing of administration to produce prolonged anticonvulsant and antiepileptic effects. Efficacious dosage amounts can be adjusted to about 14 mg/kg 2-DG in children and 40 mg/kg 2-DG in adults, using therapeutic efficacy measurements (e.g., reduction in frequency or severity of seizures) as a criterion for establishing effective dosage levels.

[3] = tested on: brains of animals suffering from a seizure disorder; settings: as disclosed in co-owned U.S. Ser. No. 60/580,436; cited from earlier work

O=C(O)c1ncccc1S [3-MCP, 3-mercaptopicolinic acid, reference compound]
burst frequency (rate of bursting) ([1]; 3 mM 3-MCP in ACSF with 10 mM glucose): 208±28 % of baseline
rate of bursting ([1]; 3-MCP, FIGS. 5A and 5B): induces an increase in the rate of bursting

O=C(O)[C@@H](O)CO [L-glycerate]
epileptic discharges evoked in vitro (relative burst frequency) [1]: effective against epileptic discharges

CC(=O)C(=O)O [pyruvate, reference compound]
burst frequency ([1]; reversible): 4±2 % of the baseline

thioglycolate
epileptiform bursting frequency [1]: reduce epileptiform bursting frequency
epileptic discharges evoked in vitro (relative burst frequency) [1]: effective against epileptic discharges

C=C(OP(=O)(O)O)C(=O)O [PEP, phosphoenolpyruvate, reference compound]
burst frequency (rate of bursting) ([1]; 5 mM PEP in ACSF with 10 mM glucose, reversible): 215±32 % of baseline

O=C(O)CCl [β-chloroacetate]
epileptiform bursting frequency [1]: reduce epileptiform bursting frequency
epileptic discharges evoked in vitro (relative burst frequency) [1]: effective against epileptic discharges

O=C(O)CO [glycolic acid]
block of the increase in bursting caused by inhibition of PEPCK by 3-MCP ([1]; PEPCK substrate with 3-MCP, FIGS. 6B, 6C): modestly blocks an increase in bursting
epileptiform bursting frequency [1]: reduce epileptiform bursting frequency
epileptic discharges evoked in vitro (relative burst frequency) [1]: effective against epileptic discharges

O=CC[C@@H](O)[C@H](O)[C@H](O)CO [2DG, 2-deoxy-D-glucose]
synchronized bursting ([1]; 1 mM 2DG in the presence of 20 mM lactate): reduced synchronized bursting
epileptic discharges evoked in vitro (relative burst frequency) [1]: effective against epileptic discharges
block of the increase in bursting caused by the PEPCK inhibitor 3-MCP [1]: could not be blocked
duration of anticonvulsant effects after stopping 2DG [2]: approximately 8 weeks
epileptic or synchronized bursting in the brains of animals [3]: effective in reducing epileptic or synchronized bursting

CC(O)C(=O)O (stereo not shown) [lactate, reference compound]
burst frequency ([1]; reversible): 63±8 % of the baseline

O=C(O)CI [iodoacetate, reference compound]
synchronized bursting ([1]; 200 μM iodoacetate, ACSF with 20 mM lactate): reduced synchronized bursting
epileptic discharges evoked in vitro (relative burst frequency) [1]: effective against epileptic discharges
block of the increase in bursting caused by the PEPCK inhibitor 3-MCP [1]: could not be blocked
epileptic or synchronized bursting in the brains of animals [3]: effective in reducing epileptic or synchronized bursting
